According to patent US20230346790A1, “PHARMACEUTICAL COMPOSITION FOR PREVENTION OR TREATMENT OF CANCERS ASSOCIATED WITH KRAS MUTATION” (WELLMARKER BIO CO., LTD., priority 2020, published 2023):
Entries after “also recorded” stand apart in the source; their conditions may differ.

Key:
parent cell line LIM1215 = test: Cell death rate by trypan blue staining and cell counting, cetuximab-sensitive parent line; assay type: cell-based; conditions: parent cell line LIM1215, 1 µM, 48 hours
Method: (§1) The parent cell line LIM1215 and the cetuximab-resistant cell line R2 were counted, and each of them was seeded at 3×10^5 cells in a 60 mm dish. After 24 hours, treatment with 1 µM of each of the compounds of Example 1, Example 2, Example 3, Example 4, Example 5, positive control 1 (BMS-777607), positive control 2 (crizotinib), and positive control 3 (cabozantinib) was performed. After 48 hours had elapsed since the treatment, the cells were collected, resuspended in 1x phosphate buffered saline (PBS), and stained with a trypan blue solution. The stained cells were counted using a hemocytometer. Cell counting was performed in duplicate, and the mean and the standard deviation were calculated.

[1] = system: cetuximab-resistant cell line R2 (LIM1215, KRAS G13D, RON Δ155); test: Cell death rate by trypan blue staining and cell counting, cetuximab-resistant line; assay type: cell-based; conditions: cetuximab-resistant cell line R2, 1 µM, 48 hours
Method: as §1

[2] = system: cell line R2 exhibiting secondary resistance to cetuximab (LIM1215, KRAS G13D); test: Tumor growth inhibition in mice transplanted with cetuximab-resistant cell line R2; assay type: in vivo, BALB/c nude mice; conditions: R2 xenograft mice
Method: 5-Week-old female BALB/c nude mice were purchased and acclimatized for 1 week. […] The compound of Example 1 was orally administered when the tumor reached a size of about 100 mm^3. The compound of Example 1 was administered once a day for 2 weeks, and tumor size and body weight were measured twice a week.
(§2) After completion of the 4-week experiment, the experimental animals were euthanized, and then the tumors were extracted and weighed. In addition, with respect to the tumor tissues, changes in expressions of pTyr-mRON, mRON, β-catenin, and cleaved caspase-3 were analyzed with immunohistochemical staining.

[3] = system: cell line R2 exhibiting secondary resistance to cetuximab, overexpressing β-catenin; test: Cell death induction after β-catenin overexpression, trypan blue exclusion assay; assay type: cell-based; conditions: 48 hours
Method: (§3) Subsequently, all cells were collected when 48 hours had elapsed. Cell death induction efficacy was compared and analyzed using a trypan blue exclusion assay. In addition, using these samples, changes in expression of respective proteins were compared and analyzed with the western blotting method.

[4] = system: pTyr-mRON, mRON, β-catenin, cleaved caspase-3 in tumor tissues; test: Immunohistochemical staining of extracted tumor tissues; assay type: in vivo, BALB/c nude mice; conditions: R2 xenograft
Method: as §2

[5] = system: pTyr-mRON, p-ERK, β-catenin, c-myc, cleaved caspase-3 in cell line R2; test: Western blotting of protein expression after empty vector or β-catenin transfection; assay type: cell-based
Method: The parent cell line LIM1215 and the cetuximab-resistant cell line R2 were counted. 2×10^6 cells of each cell line were washed with 1x PBS once and then lysed with 1x RIPA lysis buffer. The cell lysate was reacted on ice for 20 minutes, and then centrifuged at 13,000 rpm for 20 minutes at 4° C. to obtain a supernatant. After proteins in the obtained supernatant were quantified using Bradford method, 20 µg of the protein was subjected to sodium-polyacrylamide gel electrophoresis (SDS-PAGE).
Transfer was performed using polyvinylidene fluoride (PVDF) membrane. Then, each of phospho-RON antibody (MyBiosource, Inc., cat# MBS462024; 1:500), RON antibody (Santa Cruz Biotechnology, cat# sc-374626; 1:1,000), phospho-EGFR antibody (Cell Signaling Technology, Inc., cat# 2234; 1:1,000), EGFR antibody (Cell Signaling Technology, Inc., cat# 2232; 1:1,000), phospho-Akt antibody (Cell Signaling Technology, Inc., cat# 4060; 1:1,000), Akt antibody (Cell Signaling Technology, Inc., cat# 9272; 1:1,000), phospho-ERK antibody (Cell Signaling Technology, Inc., cat# 4370; 1:1,000), ERK antibody (Cell Signaling Technology, Inc., cat# 4695; 1:1,000), phospho-β-catenin antibody (Cell Signaling Technology, Inc., cat# 9561; 1:1,000), β-catenin antibody (Cell Signaling Technology, Inc., cat# 8480; 1:1,000), c-myc antibody (Santa Cruz Biotechnology, cat# sc-40; 1:500), and β-actin antibody (Santa Cruz Biotechnology, cat# sc-47778; 1:1,000) was diluted in 5% skim milk tris buffered saline with Tween 20 (TBS-T) solution and reacted at 4° C. overnight.
After completion of the reaction, washing with the TBS-T solution was performed three times for 10 minutes each. Subsequently, anti-mouse-HRP or anti-rabbit-HRP (Cell Signaling Technology, Inc., cat# 7074 or 7076; 1:2,000) was diluted in the 5% skim milk TBS-T solution, and then reacted at room temperature for 2 hours. Then, washing with the TBS-T solution was performed three times for 10 minutes each, and then development was performed using an ECL solution (GE Healthcare, cat# RPN2108).
as §3

[6] = cell line R2, β-catenin overexpressed
[7] = cell line R2 transfected with the empty vector

C[C@@H](Oc1cc(-c2cnn(C3CCNCC3)c2)cnc1N)c1c(Cl)ccc(F)c1Cl [positive control 2, reference compound]
cell death rate (parent cell line LIM1215): increased cell death rate | cell death rate [1]: cell death was not induced

COc1cc2c(Oc3ccc(NC(=O)c4c5c(cn(-c6ccc(F)cc6)c4=O)CCO5)cc3F)ccnc2cc1OCCN1CCOCC1 [Example 4, N-(3-Fluoro-4-((6-Methoxy-7-(2-Morpholinoethoxy)Quinolin-4-yl)Oxy)Phenyl)-5-(4-Fluorophenyl)-6-Oxo-2,3,5,6-Tetrahydrofuro[3,2-c]Pyridine-7-Carboxamide]
cell death rate [1]: cell death was effectively induced

CCOc1ccn(-c2ccc(F)cc2)c(=O)c1C(=O)Nc1ccc(Oc2ccnc(N)c2Cl)c(F)c1 [positive control 1, reference compound]
cell death rate (parent cell line LIM1215): cell death was not induced | cell death rate [1]: cell death was not induced

CCOc1ccn(-c2ccccc2)c(=O)c1C(=O)Nc1ccc(Oc2ccnc3cc(-c4ccc(CNCCOC)cn4)sc23)c(F)c1.Cl [Example 2, 4-Ethoxy-N-(3-Fluoro-4-{[2-(5-{[(2-Methoxyethyl)Amino]Methyl}Pyridine-2-yl)Thieno[3,2-b]Pyridine-7-yl]Oxy}Phenyl)-2-Oxo-1-Phenyl-1,2-Dihydropyridine-3-Carboxamide Hydrochloride]
cell death rate ([1]; Hydrochloride): cell death was effectively induced

COc1cc2c(Oc3ccc(NC(=O)c4c5c(cn(-c6ccc(F)cc6)c4=O)CCO5)cc3F)ccnc2cc1OCCCN1CC(C#N)C1 [Example 5, N-(4-((7-(3-(3-Cyanoazetidine-1-yl)Propoxy)-6-Methoxyquinoline-4-yl)Oxy)-3-Fluorophenyl)-5-(4-Fluorophenyl)-6-Oxo-2,3,5,6-Tetrahydrofuro[3,2-c]Pyridine-7-Carboxamide]
cell death rate [1]: cell death was effectively induced

CCOc1ccn(-c2ccccc2)c(=O)c1C(=O)Nc1ccc(Oc2ccnc3cc(-c4ccc(CN5CCN(C)CC5)cn4)sc23)c(F)c1.Cl [Example 3, 4-Ethoxy-N-{3-Fluoro-4-[(2-{5-[(4-Methylpiperazin-1-yl)Methyl]Pyridin-2-yl}Thieno[3,2-b]Pyridin-7-yl)Oxy]Phenyl}-2-Oxo-1-Phenyl-1,2-Dihydropyridine-3-Carboxamide Hydrochloride]
cell death rate ([1]; Hydrochloride): cell death was effectively induced

CCOc1ccn(-c2ccc(F)cc2)c(=O)c1C(=O)Nc1ccc(Oc2ccnc3cc(-c4ccc(CN5CCOCC5)cn4)sc23)c(F)c1.Cl [Example 1, 4-Ethoxy-N-[3-Fluoro-4-({2-[5-(Morpholinomethyl)Pyridine-2-yl]Thieno[3,2-b]Pyridine-7-yl}Oxy)Phenyl]-1-(4-Fluorophenyl)-2-Oxo-1,2-Dihydropyridine-3-Carboxamide Hydrochloride]
Tumor growth inhibition (TGI, %) ([2]; 15 mg/kg, oral once a day): 62.3±4.5% | tumor size inhibition effect as compared with cetuximab ([2]; small dose): remarkably excellent tumor size inhibition effect | cell death induction efficacy [3]: reduced | cell death rate ([1]; Hydrochloride): high cell death rate; also recorded: cell death was effectively induced | expression of cleaved caspase-3 in tumor tissue [4]: increased | expression of pTyr-mRON in tumor tissue [4]: decreased | expression of β-catenin in tumor tissue [4]: decreased | expression of pTyr-mRON ([5]; cell line R2, regardless of β-catenin, western blotting): decreased | expression of c-myc [5, 6]: increased again | expression of cleaved caspase-3 [5, 6]: decreased | expression of p-ERK [5, 6]: increased again | expression of β-catenin [5, 6]: increased again | expression of c-myc [5, 7]: decreased | expression of p-ERK [5, 7]: decreased | expression of β-catenin [5, 7]: decreased
